Measurements taken from paper PMC7269146, “Jingzhaotoxin-X, a gating modifier of Kv4.2 and Kv4.3 potassium channels purified from the venom of the Chinese tarantula Chilobrachys jingzhao” (The Journal of Venomous Animals and Toxins Including …, 2020).
Where a SMILES comes first, the peptide text is derived from it. Bridges are numbered along the chain shown (N, C = ends).

Columns and labels:
Assay type in all cases: cell-based
Kv4.3 [1] = molecular target: T1, Kv4.3 (Rattus norvegicus, UniProt Q62897); assay: current-voltage relationship / activation, Kv4.3
T1 construct: expressed in transfected cells; host or cells: HEK293t
T1 sequence (Q62897 1-655): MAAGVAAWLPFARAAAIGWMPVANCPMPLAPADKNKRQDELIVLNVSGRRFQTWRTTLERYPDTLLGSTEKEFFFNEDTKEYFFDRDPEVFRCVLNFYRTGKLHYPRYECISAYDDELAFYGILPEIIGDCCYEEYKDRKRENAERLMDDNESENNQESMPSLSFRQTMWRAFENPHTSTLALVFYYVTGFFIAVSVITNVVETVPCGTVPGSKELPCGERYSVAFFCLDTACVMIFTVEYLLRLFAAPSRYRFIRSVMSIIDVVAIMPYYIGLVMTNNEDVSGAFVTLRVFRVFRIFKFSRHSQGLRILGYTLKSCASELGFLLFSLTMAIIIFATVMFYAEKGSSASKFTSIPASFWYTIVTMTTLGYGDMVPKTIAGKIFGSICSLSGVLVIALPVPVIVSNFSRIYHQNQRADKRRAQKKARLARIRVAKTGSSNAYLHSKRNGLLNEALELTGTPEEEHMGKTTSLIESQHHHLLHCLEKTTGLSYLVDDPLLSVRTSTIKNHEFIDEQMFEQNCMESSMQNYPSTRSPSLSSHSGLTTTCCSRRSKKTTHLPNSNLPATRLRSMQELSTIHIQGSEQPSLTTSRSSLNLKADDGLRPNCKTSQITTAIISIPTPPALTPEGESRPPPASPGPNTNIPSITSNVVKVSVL
Source text: (§1) Rat cDNA genes encoding Kv4.2 (Accession: NM_031730.2) and Kv4.3 (Accession: AB003587.1) were subcloned to vector pcDNA3.1. In addition, human cDNA genes encoding Nav1.7 (Accession: DQ857292.1) and Nav1.5 (Accession: AB158469.2) were subcloned to vectors pcDNA3.1-mod and pcDNA3.1, separately. Then, Kv4.2, Kv4.3, Nav1.5 and Nav1.7 constructs were transiently transfected into the human embryonic kidney 293t (HEK293t) cells using lipofectamine 2000 (Invitrogen, USA) in accordance with manufacturer protocols. Thereafter, HEK293 cells were inoculated within Dulbecco’s modified Eagle’s medium (DMEM) containing 10% fetal bovine serum (FBS) at 5% CO2 and 37°C. The Kv4.3 channel and the Kv4.2 counterpart were then transfected in the absence of β subunit. Subsequently, cells were incubated with a DNA-lipofectamine mixture (one reporter plasmid for green fluorescence protein and channel constructs) for 4-6 h, and were washed with the fresh medium.
(§2) An EPC-10 patch-clamp amplifier (HEKA, Germany) was employed to record the potassium currents at the configuration of whole-cell patch-clamp under an ambient temperature of 22-25°C. The resistance was 2.0-3.0 MΩ when the recording pipette contained a full volume of internal solution (supplemented with 140 mM KCl, 10 mM HEPES, 2.5 mM MgCl2, 5 mM ATP and 11 mM EGTA). KOH was utilized to adjust the pH to 7.2, while sucrose was employed to adjust the osmolarity to 310 mOsm/L. The culture medium was replaced with an external solution containing 150 mM NaCl, 2.5 mM CaCl2, 10 mM HEPES, 2 mM MgCl2, 5 mM KCl, and 10 mM D-glucose. Similarly, sucrose and NaOH were applied to adjust the osmolarity to 330 mOsm/L and pH to 7.4. […] The series resistance was maintained at about 5 MΩ, with 65-70% compensation. Finally, the leakage currents and linear capacitance were subtracted digitally according to the P/4 protocol.
The voltage-dependent inhibition of Kv4.2 and Kv4.3 channels by JZTX-X was determined by the depolarizing pulses to potentials in 10 mV steps from −80 to +60 mV at an interval of 10 s and the holding potential of -80 mV. […] For quantifying the voltage-depending inhibition of Kv4.2 and Kv4.3 channels, the relative current was drawn based on the membrane potential. Under control conditions, those threshold potentials to initially activate Kv4.2 and Kv4.3 currents were around -40 mV. The JZTX-X treatment at 500 nM inhibited the Kv4.2 and Kv4.3 currents, and then the I-V relation shifted to the right by about 30 mV (from -39.5 ± 1.9 mV to -11.3 ± 1.2 mV ) and 40 mV (from -39.8 ± 1.5 mV to -2.5 ± 0.9 mV ), separately (Fig. 5C and D). Additionally, the channel conductance also shifted rightward by around 30 mV (data not shown).
Figure 5. […] All data were expressed as mean ± S.E.M (n = 5-7 cells).

Kv4.3 [2] = molecular target: T1, Kv4.3; assay: kinetic constants of JZTX-X at Kv4.3 channel (wash-in / wash-out); settings: test conc. 0.5 μM, n = 8
Source text: as §1, §2
As for kinetic calculations, curves as a function of peak currents vs. time were plotted from the toxin wash-out or wash-in moments. The software Sigmaplot 9.0 (Sigma, USA) was utilized to fit data to the first-order exponential equation. […]

LVA Cav channels = assay: whole-cell voltage-clamp, LVA Cav currents of rat DRG neurons; settings: 10 μM, n = 3

Structure (SMILES): CC(C)C[C@@H]1NC(=O)[C@H](CCCCN)NC(=O)[C@H](Cc2ccc(O)cc2)NC(=O)[C@@H]2CSSC[C@@H]3NC(=O)[C@H](Cc4ccc(O)cc4)NC(=O)[C@H](Cc4ccccc4)NC(=O)CNC(=O)[C@H](C)NC(=O)[C@H](CSSC[C@H](NC(=O)[C@@H](N)CC(C)C)C(=O)N[C@@H](CO)C(=O)N[C@@H](CCCNC(=N)N)C(=O)N[C@@H](CCC(=O)O)C(=O)NCC(=O)N[C@@H](CCC(=O)O)C(=O)N[C@@H](Cc4ccccc4)C(=O)N2)NC(=O)[C@H](CSSC[C@@H](C(=O)N[C@@H](Cc2ccc(O)cc2)C(=O)N[C@@H](CCCNC(=N)N)C(=O)N[C@@H](CC(N)=O)C(=O)O)NC(=O)[C@H](Cc2c[nH]cn2)NC(=O)[C@H](CC(C)C)NC(=O)[C@H](C(C)C)NC(=O)[C@H](Cc2ccccc2)NC(=O)[C@H](C)NC(=O)[C@H](CCCCN)NC3=O)NC(=O)[C@H](CCCCN)NC(=O)[C@H](CCCNC(=N)N)NC1=O [JZTX-X, Jingzhaotoxin-X] (H-LCSREGEFCYKLRKCCAGFYCKAFVLHCYRN-OH; disulfide 2-16, 9-21, 15-28; N-terminus assumed)
- I-V relation potential after toxin, Kv4.3 (Kv4.3 [1]; 500 nM, control -39.8 ± 1.5 mV, holding -80 mV, n = 5-7 cells): -2.5 ± 0.9 mV
- rightward shift of I-V relation, Kv4.3 (Kv4.3 [1]; 500 nM, holding -80 mV): ~40 mV
- rightward shift of channel conductance, Kv4.3 (Kv4.3 [1]; data not shown, channel not named separately): about 30 mV
- voltage dependence of Kv4.3 inhibition (Kv4.3 [1]; test potentials -10 to +60 mV, 100 nM and 500 nM): dependent on voltage
- kmod, Kv4.3 channel (Kv4.3 [2]; inverse of τ of toxin wash-in): 0.073 ± 0.006 s⁻¹
- koff (Kv4.3 [2]; inverse of τ of toxin wash-out): 0.005 ± 0.0004 s⁻¹
- Ki (Kv4.3 [2]; method text: Kd = koff / kon): 735 ± 50 nM
- inhibition of LVA Cav current (LVA Cav channels): less than 5%
